Reference: paper PMC12463120, “Phenylalanine‐Based DNA‐Encoded Chemical Libraries for the Discovery of Potent and Selective Small Organic Ligands Against Markers of Cancer and Immune Cells” (Advanced Science, 2025)

Target: T1, NKG2D-Fc (Homo sapiens, UniProt P26718)
T1 construct: the extracellular domain of NKG2D was fused with an IgG Fc fragment; made in house; host or cells: CHO cells
T1 sequence (P26718 73-216 limits assumed): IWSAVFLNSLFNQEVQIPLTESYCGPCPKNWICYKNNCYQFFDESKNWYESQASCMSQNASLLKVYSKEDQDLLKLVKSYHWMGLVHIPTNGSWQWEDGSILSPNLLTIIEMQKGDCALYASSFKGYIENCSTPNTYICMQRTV
Experiment: ELISA affinity against NKG2D-Fc
Assay type: binding
Conditions: FITC derivatives; read-out: dissociation constant (KD) against NKG2D-Fc by ELISA
Description: Selection results were decoded with C++^[ [61] ^] and visualized using MATLAB R2019b (MathWorks). EFs were calculated by dividing the DNA sequence counts for each hit compound by the average DNA sequence count from the corresponding DEL screening. Additionally, Z‐score values were calculated following methods previously published,^[ [60] ^] as present in Supporting Information. Hit compounds with high EFs in the target protein selections and low EFs in the negative controls (anti‐target and streptavidin selections) were selected for hit validation activities. All compounds were synthesized using either solid‐phase peptide synthesis or solution‐phase methodologies. Affinities of fluorescein‐bearing hits were determined by FP or ELISA measurements. […] ACP3 colorimetric inhibition assay was performed with serially diluted compounds at a fixed concentration (5 mM in PBS) of para‐nitrophenyl phosphate as substrate. Binding kinetics were assessed on a Biacore X100 instrument with the target protein immobilized on a CM5 chip at 4′000 RUs. Cell binding of fluorescent ligands was evaluated using flow cytometry against antigen‐positive and antigen‐negative (wild‐type) cancer cells. in vitro tissue uptake of ^177Lu‐labelled DOTAGA PSMA‐radioligands was measured via autoradiography. […]
Grenier 384 transparent, flat-bottom well plates were used. Each test compound was measured in triplicate. […]

- Kd: 133 nM
Compound: CC(C)Oc1ccc(-c2cccc(C[C@H](NC(=O)c3ccccc3-c3ccc(C(F)(F)F)cc3)C(=O)N[C@@H](CCCCNC(=S)Nc3ccc4c(c3)C(=O)OC43c4ccc(O)cc4Oc4cc(O)ccc43)C(=O)O)c2)c(F)c1 [compound 30]
